Experimental data taken from the supplement of paper PMC13380429.

Key:
Conditions in all cases: 72 h
Caco-2 [1] = assay: relative viability EC50 (midpoint between 100% and the lowest measured viability); higher = less toxic
HepG2 [2] = assay: as above
U2OS [3] = assay: as above
Calu-3 [4] = assay: as above
Vero E6 [5] = assay: as above
Caco-2 [6] = assay: drug sensitivity score (DSS) for viability; higher = more toxic; extreme values may be limits of the assay
HepG2 [7] = assay: as above
U2OS [8] = assay: as above
Calu-3 [9] = assay: as above
Vero E6 [10] = assay: as above
Caco-2 [11] = assay: cell viability relative to DMSO; higher = less toxic
HepG2 [12] = assay: as above
U2OS [13] = assay: as above
Calu-3 [14] = assay: as above
Vero E6 [15] = assay: as above

Row | Compound | relative viability EC50 (Caco-2 [1]) [µM] | relative viability EC50 (HepG2 [2]) [µM] | relative viability EC50 (U2OS [3]) [µM] | relative viability EC50 (Calu-3 [4]) [µM] | relative viability EC50 (Vero E6 [5]) [µM] | drug sensitivity score (Caco-2 [6]) | drug sensitivity score (HepG2 [7]) | drug sensitivity score (U2OS [8]) | drug sensitivity score (Calu-3 [9]) | drug sensitivity score (Vero E6 [10]) | cell viability (Caco-2 [11]; 1 nM) [%] | cell viability (Caco-2 [11]; 10 nM) [%] | cell viability (Caco-2 [11]; 100 nM) [%] | cell viability (Caco-2 [11]; 1000 nM) [%] | cell viability (Caco-2 [11]; 10000 nM) [%] | cell viability (HepG2 [12]; 1 nM) [%] | cell viability (HepG2 [12]; 10 nM) [%] | cell viability (HepG2 [12]; 100 nM) [%] | cell viability (HepG2 [12]; 1000 nM) [%] | cell viability (HepG2 [12]; 10000 nM) [%] | cell viability (U2OS [13]; 1 nM) [%] | cell viability (U2OS [13]; 10 nM) [%] | cell viability (U2OS [13]; 100 nM) [%] | cell viability (U2OS [13]; 1000 nM) [%] | cell viability (U2OS [13]; 10000 nM) [%] | cell viability (Calu-3 [14]; 1 nM) [%] | cell viability (Calu-3 [14]; 10 nM) [%] | cell viability (Calu-3 [14]; 100 nM) [%] | cell viability (Calu-3 [14]; 1000 nM) [%] | cell viability (Calu-3 [14]; 10000 nM) [%] | cell viability (Vero E6 [15]; 1 nM) [%] | cell viability (Vero E6 [15]; 10 nM) [%] | cell viability (Vero E6 [15]; 100 nM) [%] | cell viability (Vero E6 [15]; 1000 nM) [%] | cell viability (Vero E6 [15]; 10000 nM) [%]
1 | CO/N=C(\C(=O)N[C@@H]1C(=O)N2C(C(=O)O)=C(CSc3nc(C)c(CC(=O)O)s3)CS[C@H]12)c1csc(N)n1 [cefodizime] | > 10 | > 10 | > 10 | > 10 | > 10 | 0 | 0 | 0 | 0 | 0 | 89.2 | 89.8 | 105 | 100 | 89.3 | 88.6 | 105 | 98.8 | 97.3 | 103 | 96.1 | 95.5 | 99.4 | 97.7 | 98.9 | 98.9 | 93.5 | 89.3 | 86.3 | 96.8 | 93.3 | 95.8 | 89.4 | 99.6 | 106
2 | CCNC(=O)/C=C/c1cccc(Br)c1 [cinromide] | > 10 | > 10 | > 10 | > 10 | > 10 | 0.7 | 0 | 0 | 0 | 0 | 99.1 | 96.4 | 105 | 87.2 | 92.4 | 105 | 96.5 | 106 | 97.5 | 96.8 | 101 | 96.7 | 99 | 96.3 | 98.5 | 102 | 101 | 106 | 91.5 | 107 | 110 | 83.6 | 97.1 | 101 | 95.6
3 | NCCc1cc(O)c(O)cc1O [oxidopamine] | > 10 | > 10 | > 10 | > 10 | > 10 | 0 | 0 | 0 | 0 | 0 | 86.7 | 93.3 | 90.7 | 95.4 | 100 | 97.4 | 104 | 114 | 107 | 98.7 | 96 | 102 | 94.8 | 104 | 103 | 91.1 | 101 | 108 | 108 | 109 | 97.3 | 99.6 | 96.6 | 91.5 | 105
4 | CC(=O)NC1CCSC1=O (stereo not given) [citiolone] | > 10 | > 10 | > 10 | > 10 | > 10 | 0 | 0 | 0 | 0 | 0 | 98.8 | 92.6 | 97.6 | 99.7 | 99.6 | 102 | 95.8 | 95.1 | 109 | 110 | 95.4 | 95.4 | 101 | 100 | 105 | 103 | 98.4 | 93.2 | 101 | 110 | 99.9 | 94.7 | 95.6 | 102 | 106
